Measurements as given in PubChem BioAssay (NCI).
Several values for one entry are separate records, joined by “and”; a condition that tells them apart may be missing. Equal entries are not always repeated.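 Method: 48-hour compound exposure of cells in 96-well plates, five concentrations, linear interpolation of endpoints. GI50: concentration for 50% inhibition of growth. Definition used: TGI = concentration required for complete inhibition of growth.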

Legend:
Test in all cases: NCI-60 cell line screen, 48 h
MALME-3M melanoma = test system: MALME-3M melanoma
OVCAR-5 ovarian = test system: OVCAR-5 ovarian
OVCAR-4 ovarian = test system: OVCAR-4 ovarian
SNB-19 CNS = test system: SNB-19 CNS
COLO 205 colon = test system: COLO 205 colon
UACC-62 melanoma = test system: UACC-62 melanoma
NCI-H522 lung = test system: NCI-H522 lung
RPMI-8226 leukemia = test system: RPMI-8226 leukemia
IGROV1 ovarian = test system: IGROV1 ovarian
M14 melanoma = test system: M14 melanoma
SF-539 CNS = test system: SF-539 CNS
HS 578T breast = test system: HS 578T breast
SN12C renal = test system: SN12C renal
CAKI-1 renal = test system: CAKI-1 renal
NCI/ADR-RES ovarian = test system: NCI/ADR-RES ovarian
MOLT-4 leukemia = test system: MOLT-4 leukemia
OVCAR-3 ovarian = test system: OVCAR-3 ovarian
SW-620 colon = test system: SW-620 colon
SF-268 CNS = test system: SF-268 CNS
SK-MEL-5 melanoma = test system: SK-MEL-5 melanoma
A549 NSCLC = test system: A549 NSCLC
HCT-15 colon = test system: HCT-15 colon
TK-10 renal = test system: TK-10 renal
MDA-MB-231 breast = test system: MDA-MB-231 breast
NCI-H226 lung = test system: NCI-H226 lung
LOX IMVI melanoma = test system: LOX IMVI melanoma
PC-3 prostate = test system: PC-3 prostate
KM12 colon = test system: KM12 colon
CCRF-CEM leukemia = test system: CCRF-CEM leukemia
K-562 leukemia = test system: K-562 leukemia
NCI-H23 lung = test system: NCI-H23 lung
HL-60(TB) leukemia = test system: HL-60(TB) leukemia
HCC-2998 colon = test system: HCC-2998 colon
SK-MEL-28 melanoma = test system: SK-MEL-28 melanoma
MDA-N = test system: MDA-N
NCI-H460 lung = test system: NCI-H460 lung
UO-31 renal = test system: UO-31 renal
MCF7 breast = test system: MCF7 breast
A498 renal = test system: A498 renal
786-0 renal = test system: 786-0 renal
SK-OV-3 ovarian = test system: SK-OV-3 ovarian
UACC-257 melanoma = test system: UACC-257 melanoma
T-47D breast = test system: T-47D breast
SNB-75 CNS = test system: SNB-75 CNS
U251 CNS = test system: U251 CNS
ACHN renal = test system: ACHN renal
MDA-MB-435 = test system: MDA-MB-435
HCT-116 colon = test system: HCT-116 colon
DU-145 prostate = test system: DU-145 prostate
SK-MEL-2 melanoma = test system: SK-MEL-2 melanoma
HT29 colon = test system: HT29 colon
BT-549 breast = test system: BT-549 breast
RXF 393 renal = test system: RXF 393 renal
HOP-92 NSCLC = test system: HOP-92 NSCLC
SF-295 CNS = test system: SF-295 CNS
OVCAR-8 ovarian = test system: OVCAR-8 ovarian
EKVX NSCLC = test system: EKVX NSCLC
HOP-62 NSCLC = test system: HOP-62 NSCLC
SR leukemia = test system: SR leukemia

SMILES: CCC1=CC2Cc3nc4cc(Cl)ccc4c(N)c3C(C1)C2 (configuration not stated)
- TGI (MALME-3M melanoma): 9.46 µM
- TGI (OVCAR-5 ovarian): 15.4 µM
- TGI (OVCAR-4 ovarian): 17.2 µM
- TGI (SNB-19 CNS): 22.7 µM
- TGI (COLO 205 colon): 7.11 µM
- TGI (UACC-62 melanoma): 18.4 µM
- TGI (NCI-H522 lung): 16.1 µM
- TGI (RPMI-8226 leukemia): 5.79 µM
- TGI (IGROV1 ovarian): 20.7 µM
- TGI (M14 melanoma): 3.16 µM
- TGI (SF-539 CNS): 28.8 µM
- TGI (HS 578T breast): 13.1 µM
- TGI (SN12C renal): 28.2 µM
- TGI (CAKI-1 renal): 8.38 µM
- TGI (NCI/ADR-RES ovarian): 27.6 µM
- TGI (MOLT-4 leukemia): 3.28 µM
- TGI (OVCAR-3 ovarian): 21.9 µM
- TGI (SW-620 colon): 36 µM
- TGI (SF-268 CNS): 16.9 µM
- TGI (SK-MEL-5 melanoma): 4.05 µM
- TGI (A549 NSCLC): 30.8 µM
- TGI (HCT-15 colon): > 37.7 µM
- TGI (TK-10 renal): 13.6 µM
- TGI (MDA-MB-231 breast): 18.9 µM
- TGI (NCI-H226 lung): 5.73 µM
- TGI (LOX IMVI melanoma): 19.2 µM
- TGI (PC-3 prostate): 18.4 µM
- TGI (KM12 colon): 19.5 µM
- TGI (CCRF-CEM leukemia): 15.9 µM
- TGI (K-562 leukemia): 7.57 µM
- TGI (NCI-H23 lung): 17.3 µM
- TGI (HL-60(TB) leukemia): 7.42 µM
- TGI (HCC-2998 colon): 3.69 µM
- TGI (SK-MEL-28 melanoma): 7.5 µM
- TGI (MDA-N): 18 µM
- TGI (NCI-H460 lung): 18.5 µM
- TGI (UO-31 renal): 20.6 µM
- TGI (MCF7 breast): 17.6 µM
- TGI (A498 renal): 17.3 µM
- TGI (786-0 renal): 11.9 µM
- TGI (SK-OV-3 ovarian): 25.9 µM
- TGI (UACC-257 melanoma): 4.72 µM
- TGI (T-47D breast): 7.3 µM
- TGI (SNB-75 CNS): 18.5 µM
- TGI (U251 CNS): 25.3 µM
- TGI (ACHN renal): 26.7 µM
- TGI (MDA-MB-435): 8.74 µM
- TGI (HCT-116 colon): 9.77 µM
- TGI (DU-145 prostate): 28.9 µM
- TGI (SK-MEL-2 melanoma): 21.2 µM
- TGI (HT29 colon): 10.8 µM
- TGI (BT-549 breast): 35.4 µM
- TGI (RXF 393 renal): 8.15 µM
- TGI (HOP-92 NSCLC): 6.48 µM
- TGI (SF-295 CNS): 12.2 µM
- TGI (OVCAR-8 ovarian): > 49.9 µM
- TGI (EKVX NSCLC): 11.6 µM
- TGI (HOP-62 NSCLC): 22.5 µM

SMILES: CCOC(=O)c1c(-c2ccc(O)c(OC)c2)c(C#N)c(=S)n(C2OC(COC(C)=O)C(OC(C)=O)C(OC(C)=O)C2OC(C)=O)c1-c1ccccc1 (configuration not stated)
- GI50 (MALME-3M melanoma): 20.9 µM and 62.3 µM
- TGI (MALME-3M melanoma): 50.3 µM and > 100 µM
- TGI (OVCAR-5 ovarian): > 100 µM
- TGI (OVCAR-4 ovarian): > 100 µM
- TGI (SNB-19 CNS): > 100 µM
- TGI (COLO 205 colon): > 100 µM
- GI50 (UACC-62 melanoma): 45.4 µM and > 100 µM
- TGI (UACC-62 melanoma): > 100 µM
- TGI (NCI-H522 lung): 51.3 µM and 54.4 µM
- TGI (RPMI-8226 leukemia): > 100 µM
- GI50 (IGROV1 ovarian): 18 µM and 79.7 µM
- TGI (IGROV1 ovarian): 55.5 µM and > 100 µM
- TGI (M14 melanoma): > 100 µM
- TGI (HS 578T breast): > 100 µM
- TGI (SN12C renal): > 100 µM
- TGI (CAKI-1 renal): > 100 µM
- TGI (NCI/ADR-RES ovarian): > 100 µM
- TGI (MOLT-4 leukemia): > 100 µM
- GI50 (OVCAR-3 ovarian): 21.6 µM and 56.8 µM
- TGI (OVCAR-3 ovarian): 48.4 µM and > 100 µM
- TGI (SW-620 colon): > 100 µM
- TGI (SF-268 CNS): > 100 µM
- GI50 (SK-MEL-5 melanoma): 21.9 µM and 47.2 µM
- TGI (SK-MEL-5 melanoma): 65.6 µM and > 100 µM
- TGI (A549 NSCLC): > 100 µM
- TGI (HCT-15 colon): > 100 µM
- TGI (LOX IMVI melanoma): > 100 µM
- TGI (PC-3 prostate): > 100 µM
- TGI (KM12 colon): > 100 µM
- TGI (CCRF-CEM leukemia): > 100 µM
- GI50 (K-562 leukemia): 49.1 µM and > 100 µM
- TGI (K-562 leukemia): > 100 µM
- TGI (NCI-H23 lung): > 100 µM
- TGI (HL-60(TB) leukemia): > 100 µM
- GI50 (HCC-2998 colon): 35 µM and 90.1 µM
- TGI (HCC-2998 colon): > 100 µM
- TGI (SK-MEL-28 melanoma): > 100 µM
- TGI (MDA-N): > 100 µM
- TGI (NCI-H460 lung): > 100 µM
- TGI (UO-31 renal): > 100 µM
- GI50 (MCF7 breast): 22.4 µM and 63.3 µM
- TGI (MCF7 breast): > 100 µM
- TGI (A498 renal): > 100 µM
- TGI (786-0 renal): > 100 µM
- TGI (UACC-257 melanoma): > 100 µM
- TGI (U251 CNS): > 100 µM
- TGI (ACHN renal): > 100 µM
- TGI (MDA-MB-435): > 100 µM
- TGI (SR leukemia): > 100 µM
- TGI (HCT-116 colon): > 100 µM
- TGI (DU-145 prostate): > 100 µM
- TGI (HT29 colon): > 100 µM
- TGI (BT-549 breast): > 100 µM
- TGI (RXF 393 renal): > 100 µM
- TGI (HOP-92 NSCLC): > 100 µM
- TGI (SF-295 CNS): > 100 µM
- TGI (EKVX NSCLC): > 100 µM
- TGI (HOP-62 NSCLC): > 100 µM

SMILES: COC(=O)C(=O)C(C(=O)C(=O)Nc1ccccc1C(C)=O)c1nc2ccc(C(=O)c3ccccc3)cc2[nH]c1=O (configuration not stated)
- TGI (MALME-3M melanoma): > 100 µM
- TGI (OVCAR-5 ovarian): > 100 µM
- TGI (OVCAR-4 ovarian): > 100 µM
- TGI (SNB-19 CNS): > 100 µM
- TGI (UACC-62 melanoma): > 100 µM
- TGI (NCI-H522 lung): > 100 µM
- TGI (RPMI-8226 leukemia): > 100 µM
- TGI (IGROV1 ovarian): > 100 µM
- TGI (M14 melanoma): > 100 µM
- TGI (SF-539 CNS): > 100 µM
- TGI (HS 578T breast): > 100 µM
- TGI (SN12C renal): > 100 µM
- TGI (CAKI-1 renal): > 100 µM
- TGI (NCI/ADR-RES ovarian): > 100 µM
- TGI (MOLT-4 leukemia): > 100 µM
- TGI (OVCAR-3 ovarian): > 100 µM
- TGI (SF-268 CNS): > 100 µM
- TGI (SK-MEL-5 melanoma): > 100 µM
- TGI (A549 NSCLC): > 100 µM
- TGI (HCT-15 colon): > 100 µM
- TGI (TK-10 renal): > 100 µM
- TGI (MDA-MB-231 breast): > 100 µM
- TGI (NCI-H226 lung): > 100 µM
- TGI (LOX IMVI melanoma): > 100 µM
- TGI (PC-3 prostate): > 100 µM
- TGI (KM12 colon): > 100 µM
- TGI (K-562 leukemia): > 100 µM
- TGI (NCI-H23 lung): > 100 µM
- TGI (HL-60(TB) leukemia): > 100 µM
- TGI (HCC-2998 colon): > 100 µM
- TGI (MDA-N): > 100 µM
- TGI (NCI-H460 lung): > 100 µM
- TGI (UO-31 renal): > 100 µM
- TGI (MCF7 breast): > 100 µM
- TGI (A498 renal): > 100 µM
- TGI (786-0 renal): > 100 µM
- TGI (SK-OV-3 ovarian): > 100 µM
- TGI (UACC-257 melanoma): > 100 µM
- TGI (T-47D breast): > 100 µM
- TGI (SNB-75 CNS): > 100 µM
- TGI (ACHN renal): > 100 µM
- TGI (HCT-116 colon): > 100 µM
- TGI (SK-MEL-2 melanoma): > 100 µM
- TGI (HT29 colon): > 100 µM
- TGI (BT-549 breast): > 100 µM
- TGI (RXF 393 renal): > 100 µM
- TGI (HOP-92 NSCLC): > 100 µM
- TGI (SF-295 CNS): > 100 µM
- TGI (OVCAR-8 ovarian): > 100 µM
- TGI (EKVX NSCLC): > 100 µM
- TGI (HOP-62 NSCLC): > 100 µM
